Assay results taken from US5057146A (priority 1986, dated 1991).
Where two headings read alike, the source gives them in different places.

How the values were obtained:
Phytophthora infestans = assay type: in vivo, Phytophthora infestans (tomato)
Plasmopara viticola = test: foliar fungal disease control, Plasmopara viticola on vine; assay type: in vivo
Description: (§1) The compounds were tested against a variety of foliar fungal diseases of plants. The technique employed was as follows.
(§2) The plants were grown in John Innes Potting Compost (No 1 or 2) in 4 cm diameter minipots. The test compounds were formulated either by bead milling with aqueous Dispersol T or as a solution in acetone or acetone/ethanol which was diluted to the required concentration immediately before use. […] The sprays were applied to maximum retention and the root drenches to a final concentration equivalent to approximately 40 ppm a.i./dry soil. Tween 20, to give a final concentration of 0.05%, was added when the sprays were applied to cereals.
(§3) For most of the tests the compound was applied to the soil (roots) and to the foliage (by spraying) one or two days before the plant was inoculated with the disease. An exception was the test on Erysiphe graminis in which the plants were inoculated 24 hours before treatment. Foliar pathogens were applied by spray as spore suspensions onto the leaves of test plants. After inoculation, the plants were put into an appropriate environment to allow infection to proceed and then incubated until the disease was ready for assessment. The period between inoculation and assessment varied from four to fourteen days according to the disease and environment.
(§4) The disease control was recorded by the following grading: […]

Puccinia recondita = test: foliar fungal disease control, Puccinia recondita on wheat; assay type: in vivo
Description: as §1, §2, §3, §4

Venturia inaequalis = test: foliar fungal disease control, Venturia inaequalis on apple; assay type: in vivo
Description: as §1, §2, §3, §4

Pyricularia oryzae = assay type: in vivo, Pyricularia oryzae (rice)
Erysiphe graminis hordei = test: foliar fungal disease control, Erysiphe graminis hordei on barley; assay type: in vivo; conditions: inoculated 24 hours before treatment
Description: as §1, §2, §3, §4

Cercospora arachidicola = test: foliar fungal disease control, Cercospora arachidicola on peanut; assay type: in vivo
Description: as §1, §2, §3, §4

[1] = 100 ppm foliar spray plus root drench approx. 40 ppm a.i./dry soil

Row | SMILES | disease control grading, Phytophthora infestans (tomato) (Phytophthora infestans; [1]) | disease control grading, Plasmopara viticola (vine) (Plasmopara viticola; [1]) | disease control grading, Puccinia recondita (wheat) (Puccinia recondita; [1]) | disease control grading, Venturia inaequalis (apple) (Venturia inaequalis; [1]) | disease control grading, Pyricularia oryzae (rice) (Pyricularia oryzae; [1]) | disease control grading, Erysiphe graminis hordei (barley) (Erysiphe graminis hordei; [1]) | disease control grading, Cercospora arachidicola (peanut) (Cercospora arachidicola; [1]) | other results
1 | CO/C=C(/C(=O)OC)c1ccccc1[S+]([O-])c1ccc(Br)cn1 (stereo not shown) [Compound 1 (Table III), (E)--methyl 2-(2'-(5"-bromopyridin-2"-ylsulphinyl)phenyl]-3-methoxyacrylate] |  |  |  |  |  |  |  | disease control grading, Phytophthora infestans (tomato) (Phytophthora infestans; 25 ppm foliar spray only): 0 (60-100% of disease on untreated plants); disease control grading, Plasmopara viticola (vine) (Plasmopara viticola; 25 ppm foliar spray only): 0 (60-100% of disease on untreated plants); disease control grading, Puccinia recondita (wheat) (Puccinia recondita; 25 ppm foliar spray only): 0 (60-100% of disease on untreated plants); disease control grading, Venturia inaequalis (apple) (Venturia inaequalis; 25 ppm foliar spray only): 3 (trace-5% of disease on untreated plants); disease control grading, Pyricularia oryzae (rice) (Pyricularia oryzae; 25 ppm foliar spray only): 0 (60-100% of disease on untreated plants); disease control grading, Erysiphe graminis hordei (barley) (Erysiphe graminis hordei; 25 ppm foliar spray only): 0 (60-100% of disease on untreated plants); disease control grading, Cercospora arachidicola (peanut) (Cercospora arachidicola; 25 ppm foliar spray only): 0 (60-100% of disease on untreated plants)
2 | CO/C=C(/C(=O)OC)c1ccccc1S(=O)(=O)c1ccc(Br)cn1 [Compound 2 (Table III), (E)-meth-yl 2-(2'-(5"-bromopyridin-2"-ylsulphonyl)phenyl]-3-methoxyacrylate] | 0 (60-100% of disease on untreated plants) | 0 (60-100% of disease on untreated plants) | 3 (trace-5% of disease on untreated plants) | 3 (trace-5% of disease on untreated plants) | 0 (60-100% of disease on untreated plants) | 0 (60-100% of disease on untreated plants) | 0 (60-100% of disease on untreated plants) | 
3 | CO/C=C(/C(=O)OC)c1ccccc1Oc1cc(C)ccn1 [Compound 10 (Table I)] | 4 | 4 | 4 | 4 | 4 | 4 | 3 (trace-5% of disease on untreated plants) | 
4 | CO/C=C(/C(=O)OC)c1ccccc1Oc1cc(C(F)(F)F)ccn1 [Compound 11 (Table I)] |  |  |  |  |  |  |  | disease control grading, Phytophthora infestans (tomato) (Phytophthora infestans; 25 ppm foliar spray only): 4; disease control grading, Plasmopara viticola (vine) (Plasmopara viticola; 25 ppm foliar spray only): 4; disease control grading, Puccinia recondita (wheat) (Puccinia recondita; 25 ppm foliar spray only): 3 (trace-5% of disease on untreated plants); disease control grading, Venturia inaequalis (apple) (Venturia inaequalis; 25 ppm foliar spray only): 4; disease control grading, Pyricularia oryzae (rice) (Pyricularia oryzae; 25 ppm foliar spray only): 2 (6-25% of disease on untreated plants); disease control grading, Erysiphe graminis hordei (barley) (Erysiphe graminis hordei; 25 ppm foliar spray only): 4; disease control grading, Cercospora arachidicola (peanut) (Cercospora arachidicola; 25 ppm foliar spray only): 0 (60-100% of disease on untreated plants)
5 | CO/C=C(/C(=O)OC)c1ccccc1Sc1ccc(Cl)cn1 [Compound 14 (Table II), (E-)-methyl 2-[2'-(5"-chloropyridin-2"-ylthio)phenyl]-3-methoxyacrylate] | 0 (60-100% of disease on untreated plants) | 4 | 4 | 4 | 3 (trace-5% of disease on untreated plants) | 4 | 4 | 
6 | CO/C=C(/C(=O)OC)c1ccccc1Sc1ccc(Br)cn1 [Compound 15 (Table II), (E)-methyl 2-[2'-(5"-bromopyridin-2"-ylthio)phenyl]-3-methoxyacrylate] | 0 (60-100% of disease on untreated plants) | 4 | 2 (6-25% of disease on untreated plants) | 0 (60-100% of disease on untreated plants) | 0 (60-100% of disease on untreated plants) | 3 (trace-5% of disease on untreated plants) | 1 (26-59% of disease on untreated plants) | 
7 | CO/C=C(/C(=O)OC)c1ccccc1Oc1ccc(C)cn1 [Compound 16 (Table I)] | 4 | 4 | 2 (6-25% of disease on untreated plants) | 4 | 4 | 4 | 4 | 
8 | CO/C=C(/C(=O)OC)c1ccccc1Oc1cccc(C)n1 [Compound 21 (Table I)] | 3 (trace-5% of disease on untreated plants) | 4 | 3 (trace-5% of disease on untreated plants) | 4 | 4 | 4 | 4 | 
9 | CO/C=C(/C(=O)OC)c1ccccc1Oc1cccc(C(F)(F)F)n1 [Compound 22 (Table I)] | 3 (trace-5% of disease on untreated plants) | 4 | 4 | 4 | 4 | 4 | 4 | 
10 | CO/C=C(/C(=O)OC)c1ccccc1Oc1nccc(Cl)n1 [Compound 61 (Table I), (E)-methyl 2-[2'-(4"-chloropyrimidin-2"-yloxy)phenyl]-3-methoxyacrylate] | 0 (60-100% of disease on untreated plants) | 1 (26-59% of disease on untreated plants) | 3 (trace-5% of disease on untreated plants) | 4 | 0 (60-100% of disease on untreated plants) | 4 | 4 | 
11 | CO/C=C(/C(=O)OC)c1ccccc1Oc1ncc(Cl)cn1 [Compound 67 (Table I)] |  |  |  |  |  |  |  | disease control grading, Phytophthora infestans (tomato) (Phytophthora infestans; 40 ppm foliar spray only): 0 (60-100% of disease on untreated plants); disease control grading, Plasmopara viticola (vine) (Plasmopara viticola; 40 ppm foliar spray only): 4; disease control grading, Puccinia recondita (wheat) (Puccinia recondita; 40 ppm foliar spray only): 3 (trace-5% of disease on untreated plants); disease control grading, Venturia inaequalis (apple) (Venturia inaequalis; 40 ppm foliar spray only): 0 (60-100% of disease on untreated plants); disease control grading, Pyricularia oryzae (rice) (Pyricularia oryzae; 40 ppm foliar spray only): 0 (60-100% of disease on untreated plants); disease control grading, Erysiphe graminis hordei (barley) (Erysiphe graminis hordei; 40 ppm foliar spray only): 2 (6-25% of disease on untreated plants); disease control grading, Cercospora arachidicola (peanut) (Cercospora arachidicola; 40 ppm foliar spray only): 4
12 | CO/C=C(/C(=O)OC)c1ccccc1Oc1ncc(C(F)(F)F)cc1[N+](=O)[O-] [Compound 129 (Table I)] | 0 (60-100% of disease on untreated plants) | 0 (60-100% of disease on untreated plants) | 0 (60-100% of disease on untreated plants) | 4 | 0 (60-100% of disease on untreated plants) | 4 | 0 (60-100% of disease on untreated plants) | 
13 | CO/C=C(/C(=O)OC)c1ccccc1Oc1ccc(NC=O)cn1 [Compound 130 (Table I)] | 0 (60-100% of disease on untreated plants) | 0 (60-100% of disease on untreated plants) | 3 (trace-5% of disease on untreated plants) | 0 (60-100% of disease on untreated plants) | 0 (60-100% of disease on untreated plants) | 0 (60-100% of disease on untreated plants) | 4 | 
14 | CO/C=C(/C(=O)OC)c1ccccc1Oc1ccc([N+](=O)[O-])cn1 [Compound 133 (Table I), (E)-methyl 2-[2'-(5"-nitropyridin-2"-yloxy)phenyl]-3-methoxyacrylate] | 0 (60-100% of disease on untreated plants) | 4 | 4 | 4 | 4 | 4 |  | 
15 | CO/C=C(/C(=O)OC)c1ccccc1Oc1cc(F)nc(Cl)c1 [Compound 167 (Table I)] |  | 4 | 4 | 4 | 3 (trace-5% of disease on untreated plants) | 4 | 0 (60-100% of disease on untreated plants) | 
